Results as given in patent publication US5122448A, “Assay of anti-Epstein-Barr virus nuclear antigen antibodies with synthetic polypeptides” (Scripps Clinic and Research Foundation, priority 1990, dated 1992).
Where two headings read alike, the source gives them in different places. Residues, ends and D or L forms follow the SMILES beside them.

Experiments:
anti-EBNA antibodies = assay: ELISA with polypeptide as solid phase antigen, anti-polypeptide activity of sera (OD405); assay type: binding, human; conditions: for OD405 × 10^3 obtained with Patient Antibodies to peptide: serum 1:20
Method: (§1) Briefly, microtiter wells (Costar, #3590, Cambridge, MA) were typically coated with individual polypeptides as antigens by adding 100 microliters (ul) of BBS [10 millimoler (mM) sodium borate (pH 8.3), 150 mM NaCl] containing polypeptide at a concentration of 10 micrograms per milliliter (ug/ml). Contact between the wells and antigen-containing solution was maintained for a predetermined time, typically 15 minutes, and at 20 degrees C., to form an antigen-coated solid phase. The solid and liquid phases were separated and the wells were washed three times with BBS.
(§2) Non-specific binding sites were blocked by admixing 200 microliters of 1% bovine serum albumin (BSA) in each well to form another solid/liquid phase admixture, and maintaining that solid/liquid phase admixture for 30 minutes, at 20 degrees C. The phases were separated and excess, unbound BSA was removed by washing three times with BBS.
(§3) Rabbit and human sera (body sample aliquots) were assayed for anti-polypeptide activity by adding 100 microliters of a serum diluted 1:20 in BBS per well to form a solid/liquid phase composition. Contact between the diluted sera and the antigen-coated solid phase was maintained for a predetermined time such as 1 hour, and at 20 degrees C., for an immunoreactant to form. The solid and liquid phases were separated, and the solid phase; i.e., antigen-coated, immunoreactant-containing wells, was then washed three times with BBS.
(§4) The antibodies in human sera that immunoreacted with an adsored polypeptide were detected using an indicating means comprising alkaline phosphatase-conjugated goat anti-human Ig antibody (Tago, Burlington, Calif.). The antibodies in rabbit sera that immunoreacted with an adsorbed polypeptide were detected using an indicating means comprising alkaline phosphatase-conjugated goat anti-rabbit Ig antibody (Kirkegard & Perry Laboratories, Inc., Gaithersburg, MD). In either instance, 100 microliters of the indicating antibody diluted 1:300 in BBS were added per well to form a further solid/liquid phase composition. This solid-liquid phase composition was maintained for a predetermined time, one hour, for the formation of a reaction product between the human antibodies bound to the solid phase and the indicating means, and at 20 degrees C. The phases were separated, and the solid phase was washed 3 times with BBS.
(§5) Alkaline phosphatase-conjugated antibody bound to polypeptide specific antibody was detected by spectrophotometrically measuring the enzymatic hydrolysis of p-nitrophenyl phosphate to p-nitrophenol. Briefly, 100 microliters of p-nitrophenyl phosphate [1 milligram per milliliter in 2 mM MgCl 2, (pH 9.8), 50 mM sodium carbonate] were added to each well. The enzymatic reaction was allowed to proceed 1 hour and then the optical density at 405 nm was determined in a [sequence] spectrophotometer available from Flow Laboratories, Inglewood, Calif.

[1] = Circular dichroism spectroscopy; assay type: physicochemical; conditions: 1 mg/ml in phosphate buffered saline
Method: The conformational properties of the polypeptides were investigated to elucidate any secondary structure that might be necessary for polypeptide immunoreaction with human anti-EBNA antibodies. The polypeptides were dissolved at a concentration of 1 mg/ml in phosphate-buffered saline (PBS). Spectra were taken using 1 ml samples in a Cary 61 spectropolarimeter (Cary Instruments, Applied Physics Corp., Monrovia, Calif.) interfaced and automated with a Digital Equipment Corporation 11/02 computer (Digital Equipment Corporation, Maynard, Mass.).

[2] = system: antibodies to EBNA-1 and autoantigens; conditions: cited from earlier work
[3] = system: IgM and IgG antibodies to EBNA-1 and cellular proteins of Wi-L2 cells
Method: In an alternative procedure, the cellular protein-containing extracts were loaded onto one 13-cm-wide slot of a 7.5 percent acrylamide gel and electrophoresed. The contents of the electrophoresed gel were transferred to nitrocellulose as previously described [Billings et al., Proc. Natl. Acad. Sci. USA, 80:7104-7108 (1983); Rumpold et al., J. Immunol., 138:593-599 (1987); Rhodes et al., J. Exp. Med., 165:1026-1040 (1987)]. Sera were diluted 1:20 or 1:50 in a powdered milk (PM) buffer (3 percent powered milk in 0.05 M borate, 0.15 M NaCl, pH 8.3), and contacted with the strip for 1 hour at room temperature to immunoreact antibodies in the sera with the proteins.
128:593-599 (1987); Rhodes et al., in Herpesvirus, R. Rapp ed., Alan R. Liss, New York; p. […] 154:885-889 (1986); Geltosky et al., J. Clin. Lab Analysis, 1:153-162 (1987); and Rhodes et al., J. Exp. Med., 165:1026-1040 (1987)] and bands were detected by autoradiography as described before.
Synthetic peptide inhibitions were performed by diluting the sera 1:50 in PM and adding free peptide to a final concentration of 400 ug/ml to inhibit IgM antibody and 20 to 50 ug/ml to inhibit IgG antibody. This solution was maintained (incubated) overnight at 4 degrees C. and then used to blot as described above.

[4] = system: anti-EBNA antibodies (IgM, IgG); conditions: 405 nanometer
Source text: To differentiate the class of immunoglobulin predominantly responsible for an individual's immune response at a given time during the course of infectious mononucleosis, secondary (indicating) antibodies specific for human IgG or IgM were used in the ELISA as described in the Methods and Materials section (III).
as §1, §2, §3, §4, §5

[5] = Patient 15, 1 Month after infection
[6] = Patient 15, 1 Week after infection
[7] = Patient 15, 3 Months after infection
[8] = Patient 15, 12 Months after infection
[9] = Patient 15, 21 Months after infection
[10] = Patient three, 1 Month after infection
[11] = Patient three, 1 Week after infection
[12] = Patient three, 3 Months after infection
[13] = Patient three, 21 Months after infection

With C[C@H](N)C(=O)NCC(=O)N[C@@H](C)C(=O)NCC(=O)NCC(=O)NCC(=O)N[C@@H](C)C(=O)NCC(=O)NCC(=O)N[C@@H](C)C(=O)NCC(=O)N[C@@H](C)C(=O)NCC(=O)NCC(=O)NCC(=O)N[C@@H](C)C(=O)NCC(=O)NCC(=O)N[C@@H](C)C(=O)NCC(=O)O [Polypeptide P62, H--Ala--Gly--Ala--Gly--Gly--Gly--Ala--Gly--Gly--Ala--Gly--Ala--Gly--Gly--Gly--Ala--Gly--Gly--Ala--Gly--OH] (H-AGAGGGAGGAGAGGGAGGAG-OH) as the compound, how does the “Reactivity of sera of EBV non-immune donors to polypeptide” value (anti-EBNA antibodies; 27 EBV non-immune (VCA-) donors) read?
Its value is “None of the sera displayed significant reactivity”.

What about the “Number of anti-EBNA positive sera positive against (bound to) polypeptide” value (anti-EBNA antibodies; 91 ACIF anti-EBNA positive sera, 1:20 dilution) of the same compound?
The value was 91.

And the “Number of EBNA positive sera that immunoreacted with polypeptide” value (anti-EBNA antibodies; 91 EBNA positive sera, dilution 1:320)?
The value was 83.

And the “Titer of PSS patients versus normals” value (anti-EBNA antibodies; Progressive Systemic Schlerosis patients)?
The value was “relatively higher average titer”.

What about the “Reaction of VCA+ sera with polypeptide” value (anti-EBNA antibodies; clinically normal VCA+ individuals, two dilutions) of the same compound?
Its value is “all of the VCA^+ individuals were positive”.

And the “Reaction of VCA- sera with polypeptide” value (anti-EBNA antibodies; panel of 19 VCA- sera)?
Its value is “None of the VCA^- sera were found to react positively”.

What about the “OD405 × 10^3 obtained with Patient Antibodies to peptide” value (from here on “OD405 × 10^3 obtained”) (anti-EBNA antibodies; MV post-mononucleosis) of the same compound?
The value was 631 OD405 × 10^3.

What about the “OD405 × 10^3 obtained” value (anti-EBNA antibodies; MV pre-mononucleosis) of the same compound?
The value was 77 OD405 × 10^3.

What about the “OD405 × 10^3 obtained” value (anti-EBNA antibodies; SB post-mononucleosis) of the same compound?
Its value is 514 OD405 × 10^3.

And the “OD405 × 10^3 obtained” value (anti-EBNA antibodies; SB pre-mononucleosis)?
The value was 13 OD405 × 10^3.

And the “OD405 × 10^3 obtained” value (anti-EBNA antibodies; VCA+ Normal 1)?
The value was 958 OD405 × 10^3.

And the “OD405 × 10^3 obtained” value (anti-EBNA antibodies; VCA+ Normal 2)?
Its value is 819 OD405 × 10^3.

What about the “Conformation by circular dichroism spectrum” value [1] of the same compound?
Its value is “relatively stable secondary structure”.

And the “Immunoreactivity with sera from patients with acute EBV infection” value [2]?
Its value is “most immunoreactive”.

What about the “Inhibition of IgG antibodies to EBNA-1” value [2] of the same compound?
Its value is “can also be inhibited”.

What about the “Inhibition of IgM antibody binding to protein bands” value ([3]; acute EBV-IM sera 1:50, 400 ug/ml peptide) of the same compound?
Its value is “inhibited IgM antibody binding to several protein bands”.

What about the “Inhibition of IgG binding to EBNA-1 band at 77 kD” value ([3]; convalescent and normal sera, 50 ug/ml peptide) of the same compound?
Its value is “inhibited by the peptide in all cases”.

And the “Inhibition of IgM reactivities with 82-77 kD and 58 to 62 kD bands” value ([3]; patient four. 12 days after onset of CMV illness, 400 ug/ml peptide)?
The value was “inhibited”.

What about the IgG antipeptide activity [4, 5] of the same compound?
The IgG antipeptide activity was 118 Optical density.

And the IgM antipeptide activity [4, 5]?
The IgM antipeptide activity was 225 Optical density.

What about the IgG antipeptide activity [4, 6] of the same compound?
The IgG antipeptide activity was 113 Optical density.

What about the IgM antipeptide activity [4, 6] of the same compound?
The IgM antipeptide activity was 152 Optical density.

And the IgG antipeptide activity [4, 7]?
The IgG antipeptide activity was 118 Optical density.

What about the IgM antipeptide activity [4, 7] of the same compound?
Its IgM antipeptide activity is 208 Optical density.

And the IgG antipeptide activity [4, 8]?
The IgG antipeptide activity was 375 Optical density.

And the IgM antipeptide activity [4, 8]?
The IgM antipeptide activity was 249 Optical density.

And the IgG antipeptide activity [4, 9]?
The IgG antipeptide activity was 994 Optical density.

What about the IgM antipeptide activity [4, 9] of the same compound?
Its IgM antipeptide activity is 185 Optical density.

And the IgG antipeptide activity [4, 10]?
The IgG antipeptide activity was 37 Optical density.

And the IgM antipeptide activity [4, 10]?
Its IgM antipeptide activity is 87 Optical density.

And the IgG antipeptide activity [4, 11]?
The IgG antipeptide activity was 80 Optical density.

What about the IgM antipeptide activity [4, 11] of the same compound?
The IgM antipeptide activity was 245 Optical density.

And the IgG antipeptide activity [4, 12]?
The IgG antipeptide activity was 60 Optical density.

What about the IgM antipeptide activity [4, 12] of the same compound?
The IgM antipeptide activity was 136 Optical density.

What about the IgG antipeptide activity [4, 13] of the same compound?
Its IgG antipeptide activity is 600 Optical density.

What about the IgM antipeptide activity [4, 13] of the same compound?
Its IgM antipeptide activity is 145 Optical density.

What about the IgG antipeptide activity ([4]; Patient three, Pre Infection) of the same compound?
Its IgG antipeptide activity is 74 Optical density.

And the IgM antipeptide activity ([4]; Patient three, Pre Infection)?
Its IgM antipeptide activity is 103 Optical density.
